The text below walks through data of patent publication US20160031935A1, “SMALL MOLECULE MODULATORS OF PCSK9 AND METHODS OF USE THEREOF” (ADAERATA, LIMITED PARTNERSHIP, priority 2013, published 2016).

For data set [1], the system named is cell surface LDLR activity. Description: Dil-LDL uptake assay in HepG2 naïve cells. The note with it: for activity at 10 µM: Homo sapiens, 24 h, HepG2 cells, read-out: Dil-LDL uptake (% DMSO Cnt). Format: cell-based, human. The procedure: HepG2 naive cells and HEK293 naive cells were plated in 96-well plates (CellBind black plate with clear bottom (Corning; Cat #3340)) at a density of 25,000 cells/well, in complete media (DMEM high glucose (+sodium pyruvate for HepG2) (Wisent)+10% FBS). After 20 hours, cells were washed for 30 min with serum free DMEM media (100 μl/well), the wash media was removed and replaced with 100 μl/well of incubation media (DMEM high glucose (+sodium pyruvate for HepG2) (Wisent)+0.07% BSA (Sigma-Aldrich)) containing compound at various concentrations ([…]) or DMSO control (0.4% final). Each condition was prepared in triplicates. After 6 hours incubation at 37° C., Dil-LDL (Biomedical Technologies (Cat #BT-904)) was added to the cell media (5 μl) at 5 μg/ml final concentration, and cells returned to tissue culture incubator for another 18 hours (a total of 24 hours incubation with the compounds). After 2 washes (200 μl/well) with ice-cold D-PBS (Wisent) and aspiration of the final wash, plates were scanned (bottom read) on a SpectraMax GeminiEM™ plate reader (Molecular Devices). For each well, raw Dil-LDL uptake was measured as the average fluorescence intensity (RFU) (ex: 520 nm/em: 575 nm, cutoff: 550 nm) of 9 readings in 3 different points in the well. Dil-LDL uptake in each well was corrected for total number of cells by performing a CyQuant™ cell assay (Invitrogen; Cat #C7026). Namely, after recording the Dil fluorescence, the plate was frozen overnight at −80° C. The next day, the plates were thawed at room temperature, the cells lysed according to the manufacturer's protocol, and the number of cells/well was determined by measuring the fluorescence (RFU) of the CyQuant green fluorescent dye bound to the cellular nucleic acids (ex: 485 nm/em: 538 nm, cutoff: 515 nm). For each condition, Dil-RFU was divided by CyQuant-RFU. Corrected dil-LDL uptake is reported as % DMSO control and was obtained from triplicate wells.
The PCSK9 inhibitory compounds were also characterized using a Dil-LDL fluorescent uptake assay as described in Poirier et al., J. Biol. Chem. 284: 28856-28864, 2009. The method entails the fluorescence measurement of the Dil-LDL cellular incorporation via LDLR internalization (a measurement of cell surface LDLR activity) in human hepatocyte derived HuH7 or HepG2 cell lines, or human embryonic HEK293 cells, in the presence or absence of compounds.
HepG2 naïve cells and HEK293 naïve cells were plated in 96-well plates (CellBind™ black plate with clear bottom (Corning; Cat #3340)). At 20 h post-seeding, cells were incubated in the absence (DMSO or negative control) or in the presence of different concentrations of compounds. Each condition was prepared in triplicates. After 6 hours incubation, Dil-LDL (Biomedical Technologies (Cat #BT-904)) was added to the cell media, and cells returned to tissue culture incubator for another 18 hours. Plates were scanned (bottom read) on a SpectraMax GeminiEM™ plate reader (Molecular Devices). For each well, raw Dil-LDL uptake was measured as the average fluorescence intensity (RFU) (ex: 520 nm/em: 575 nm, cutoff: 550 nm) of 9 readings in 3 different points in the well. Dil-LDL uptake in each well was corrected for total number of cells by performing a CyQuant™ cell assay (Invitrogen, Cat #C7026) according to the manufacturer's instructions. Corrected Dil-LDL uptake is reported as a % of DMSO control and was obtained from triplicate wells.

Data set [2] has as its system HepG2 cells. Description: Cell viability assay (cell density during the PCSK9 secretion assay). Format: cell-based, human. The note with it: 33 μM. The procedure:
For the cell viability assay, the cell density of HepG2 cells was measured in the presence of 33 μM of compounds or in the presence of DMSO (control) during the PCSK9 secretion assay described in Example 92. Table II below presents compounds with a low toxicity at 33.3 μM or less.

Molecules are shown by their SMILES.

For the compound `CCCCCCCCCC(=O)N[C@H](C(=O)N[C@@H](Cc1ccccc1)C(=O)N[C@H](C)C(=O)N[C@@H](CCC(N)=O)C(O)C(F)(F)F)C(C)C` (single isomer, unassigned) [Example 60], the activity at 10 µM in data set [1] came to 224 ± 43%. Also, the “Cell viability (% DMSO Cnt)” value in data set [2] worked out at 80 % DMSO Cnt.

Regarding `CC(C)[C@H](NC(=O)c1ccc(-c2ccccc2)cc1)C(=O)N[C@@H](Cc1ccccc1)C(=O)N[C@@H](C)C(=O)NC(CCC(N)=O)C(O)C(F)(F)F` (stereo partly drawn) [Example 24, N-((2S)-1-(((2S)-1-(((2S)-1-((6-Amino-1,1,1-trifluoro-2-hydroxy-6-oxohexan-3-yl)amino)-1-oxopropan-2-yl)amino)-1-oxo-3-phenylpropan-2-yl)amino)-3-methyl-1-oxobutan-2-yl)-[1,1′-biphenyl]-4-carboxamide], in data set [1] (33.3 μM, HepG2 naïve cells), the “Dil-LDL uptake (FIG. 5A, in words)” value was “increase in the Dil-LDL uptake”. The activity at 10 µM in data set [1] worked out at 224 ± 33%.

Consider `CC(C)[C@H](NC(=O)c1ccc(-c2ccc(F)cc2)cc1)C(=O)N[C@@H](Cc1ccccc1)C(=O)N[C@@H](C)C(=O)NC(CCC(N)=O)C(O)C(F)(F)F` (stereo partly drawn) [Example 52, N-((2S)-1-(((2S)-1-(((2S)-1-((6-Amino-1,1,1-trifluoro-2-hydroxy-6-oxohexan-3-yl)amino)-1-oxopropan-2-yl)amino)-1-oxo-3-phenylpropan-2-yl)amino)-3-methyl-1-oxobutan-2-yl)-4′-fluoro-[1,1′-biphenyl]-4-carboxamide], for which the activity at 10 µM in data set [1] turned out to be 254 ± 71%.

Take `CSCC[C@H](NC(=O)c1ccc(-c2ccccc2)cc1)C(=O)N[C@@H](Cc1ccccc1)C(=O)N[C@@H](C)C(=O)NC(CCC(N)=O)C(O)C(F)(F)F` (stereo partly drawn) [Example 75, N-((5S,8S,11S)-17-amino-8-benzyl-11-methyl-6,9,12,17-tetraoxo-14-(2,2,2-trifluoro-1-hydroxyethyl)-2-thia-7,10,13-triazaheptadecan-5-yl)-[1,1′-biphenyl]-4-carboxamide]: in data set [1], the activity at 10 µM turned out to be 172 ± 48%.

In the case of `CCCCCCCCCC(=O)N[C@H](C(=O)N[C@@H](Cc1ccccc1)C(=O)N[C@@H](Cc1ccccc1)C(=O)NC(CCC(N)=O)C(O)C(F)(F)F)C(C)C` (stereo partly drawn) [Example 59, N-((2S)-1-(((2S)-1-(((2S)-1-((6-Amino-1,1,1-trifluoro-2-hydroxy-6-oxohexan-3-yl)amino)-1-oxo-3-phenylpropan-2-yl)amino)-1-oxo-3-phenylpropan-2-yl)amino)-3-methyl-1-oxobutan-2-yl)decanamide], in data set [1], the activity at 10 µM was 253 ± 75%. Moreover, the “Cell viability (% DMSO Cnt)” value in data set [2] came out at 83 % DMSO Cnt.

As for `CC(C)[C@H](NC(=O)c1ccc(C2(C(F)(F)F)N=N2)cc1)C(=O)N[C@@H](Cc1ccccc1)C(=O)N[C@@H](C)C(=O)NC(CCC(N)=O)C(O)C(F)(F)F` (stereo partly drawn) [Example 29, N-((2S)-1-(((2S)-1-(((2S)-1-((6-Amino-1,1,1-trifluoro-2-hydroxy-6-oxohexan-3-yl)amino)-1-oxopropan-2-yl)amino)-1-oxo-3-phenylpropan-2-yl)amino)-3-methyl-1-oxobutan-2-yl)-4-(3-(trifluoromethyl)-3H-diazirin-3-yl)benzamide], the activity at 10 µM in data set [1] amounted to 207 ± 21%. In addition, the “Cell viability (% DMSO Cnt)” value in data set [2] came to 88 % DMSO Cnt.

Consider `CCCCCCCCCC(=O)N[C@H](C(=O)N[C@@H](Cc1ccccc1)C(=O)N[C@H](C(=O)NC(CCC(N)=O)C(O)C(F)(F)F)C(C)C)C(C)C` (stereo partly drawn) [Example 58, N-((2S)-1-(((2S)-1-(((2S)-1-((6-amino-1,1,1-trifluoro-2-hydroxy-6-oxohexan-3-yl)amino)-3-methyl-1-oxobutan-2-yl)amino)-1-oxo-3-phenylpropan-2-yl)amino)-3-methyl-1-oxobutan-2-yl)decanamide], for which the activity at 10 µM in data set [1] stood at 261 ± 48%. Moreover, the “Cell viability (% DMSO Cnt)” value in data set [2] is 93 % DMSO Cnt.

For `CC(C)[C@H](NC(=O)c1ccc(-c2ccccc2)cc1)C(=O)N[C@@H](Cc1ccccc1)C(=O)NC1(C(=O)N[C@@H](CCC(N)=O)C(O)C(F)(F)F)CCC1` (single isomer, unassigned) [Example 66], the activity at 10 µM in data set [1] was 237 ± 59%.

In the case of `CC(C)[C@H](NC(=O)c1ccc(-c2ccccc2)cc1)C(=O)N[C@H](Cc1ccccc1)C(=O)N[C@@H](C)C(=O)NC(CCC(N)=O)C(O)C(F)(F)F` (stereo partly drawn) [Example 70, N-((2S)-1-(((2R)-1-(((2S)-1-((6-Amino-1,1,1-trifluoro-2-hydroxy-6-oxohexan-3-yl)amino)-1-oxopropan-2-yl)amino)-1-oxo-3-phenylpropan-2-yl)amino)-3-methyl-1-oxobutan-2-yl)-[1,1′-biphenyl]-4-carboxamide], in data set [1], the activity at 10 µM is 224 ± 47%.
